Data: patent publication US20240150293A1, “SPIROCYCLOHEXANE DERIVATIVES, PHARMACEUTICAL COMPOSITIONS CONTAINING THEM AND THEIR USES AS ANTI-APOPTOTIC INHIBITORS” (LES LABORATOIRES SERVIER, priority 2021, published 2024)
Where two headings read alike, the source gives them in different places.

Experiments:
[1] = biological target: Cy5-labelled Mcl1 (amino acids 171-321) C286S protein (UniProtKB Q07820) (Homo sapiens (Human), UniProt Q07820, C286S); experiment: Inhibition of Mcl-1 by the fluorescence quenching assay (Example A, Method B); format: binding
Chain of Cy5-labelled Mcl1 (amino acids 171-321) C286S protein (Q07820 171-321 C286S): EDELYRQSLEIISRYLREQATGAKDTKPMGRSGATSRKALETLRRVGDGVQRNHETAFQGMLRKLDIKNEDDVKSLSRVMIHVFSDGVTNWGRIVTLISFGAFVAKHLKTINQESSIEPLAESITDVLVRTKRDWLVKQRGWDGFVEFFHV
In short: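 Eleven-point compound series incubated 2 h at room temperature with 1 nM Cy5-tagged protein and quencher-labelled PUMA peptide at 10, 20 or 400 nM in HEPES/NaCl/Tween 20, pH 7.4, 5% DMSO. IC50 for 50% fluorescence increase by 4-parameter fit, then Ki derived (complete cKi or estimated eKi).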

[2] = test system: H929 multiple myeloma tumor line; experiment: In vitro cytotoxicity, MTT assay (Example B, Method A); format: cell-based; conditions: H929 cells, 48 hours exposure, read-out: C50
Protocol: The cytotoxicity studies were carried out on the H929 multiple myeloma tumor line.
The cells are distributed onto microplates and exposed to the test compounds for 48 hours. The cell viability is then quantified by a colorimetric assay, the Microculture Tetrazolium Assay (Carmichael et al, Cancer Res. 1987, 47, 939-942).
The results are expressed in C50 which means concentration corresponding to […] of effect/inhibition.

SMILES	Ki [1]	IC50 ([2]; Homo sapiens, NCI-H929, 48 h)	IC50 [2]
COCCOc1ccc2c(c1)[C@]1(CC[C@@](Nc3cccc(Cl)c3)(C(=O)O)CC1)[C@@H](C[C@@H](C)COc1ccnc3ccsc13)C2 [Example 730, (1r,2′S,4S)-4-(3-chloroanilino)-6′-(2-methoxyethoxy)-2′-{(2R)-2-methyl-3-[(thieno[3,2-b]pyridin-7-yl)oxy]propyl}-2′,3′-dihydrospiro[cyclohexane-1,1′-indene]-4-carboxylic acid]	2.1 nM	210 nM	–
C[C@@H](COc1ccnc2c1C1CCC2CC1)C[C@H]1Cc2ccccc2[C@]12CC[C@@](Nc1cccc(Cl)c1)(C(=O)O)CC2 [Example 648, (1r,2′S,4S)-4-(3-chloroanilino)-2′-{(2R)-2-methyl-3-[(5,6,7,8-tetrahydro-5,8-ethanoquinolin-4-yl)oxy]propyl}-2′,3′-dihydrospiro[cyclohexane-1,1′-indene]-4-carboxylic acid]	18 nM	790 nM	–
C[C@@H](COc1ccnc2c1CCC/C2=C\F)C[C@H]1Cc2ccccc2[C@]12CC[C@@](Nc1cccc(Cl)c1)(C(=O)O)CC2 [Example 684, (1r,2′S,4S)-4-(3-chloroanilino)-2′-[(2R)-3-{[(8E)-8-(fluoromethylidene)-5,6,7,8-tetrahydroquinolin-4-yl]oxy}-2-methylpropyl]-2′,3′-dihydrospiro[cyclohexane-1,1′-indene]-4-carboxylic acid]	45.5 nM	5850 nM	–
C[C@@H](COc1ccnc2ccsc12)C[C@@H]1Cc2ccc(F)cc2[C@]12CC[C@@](Nc1cccc(Cl)c1)(C(=O)O)CC2 [Example 736, (1r,2′R,4R)-4-(3-chloroanilino)-6′-fluoro-2′-{(2R)-2-methyl-3-[(thieno[3,2-b]pyridin-7-yl)oxy]propyl}-2′,3′-dihydrospiro[cyclohexane-1,1′-indene]-4-carboxylic acid]	5.19 nM	1220 nM	–
C[C@@H]1CCCc2nccc(OCC(CC3Cc4ccccc4[C@]34CC[C@@](Nc3cccc(Cl)c3)(C(=O)O)CC4)C(F)F)c21 (single isomer, unassigned) [Example 519]	0.909 nM	–	202 nM
O=C(O)[C@]1(Nc2cccc(Cl)c2)CC[C@@]2(CC1)c1ccccc1C[C@@H]2C[C@H](COc1ccncc1)c1ccccc1 [Example 555, (1r,2′S,4S)-4-(3-chloroanilino)-2′-{(2S)-2-phenyl-3-[(pyridin-4-yl)oxy]propyl}-2′,3′-dihydrospiro[cyclohexane-1,1′-indene]-4-carboxylic acid]	14.6 nM	2860 nM	–
CC1CC(O)c2nccc(OC[C@H](C)C[C@H]3Cc4ccccc4[C@]34CC[C@@](Nc3cccc(Cl)c3)(C(=O)O)CC4)c21 (stereo partly drawn) [Example 610, (1r,2′S,4S)-4-(3-chloroanilino)-2′-{(2R)-3-[(7-hydroxy-5-methyl-6,7-dihydro-5H-cyclopenta[b]pyridin-4-yl)oxy]-2-methylpropyl}-2′,3′-dihydrospiro[cyclohexane-1,1′-indene]-4-carboxylic acid]	0.767 nM	423 nM	–
CC[C@@H]1CC[C@@H](F)c2nccc(OC[C@H](C)C[C@H]3Cc4ccccc4[C@]34CC[C@@](Nc3cccc(Cl)c3)(C(=O)O)CC4)c21 [Example 697, (1r,2′S,4S)-4-(3-chloroanilino)-2′-[(2R)-3-{[(5R,8R)-5-ethyl-8-fluoro-5,6,7,8-tetrahydroquinolin-4-yl]oxy}-2-methylpropyl]-2′,3′-dihydrospiro[cyclohexane-1,1′-indene]-4-carboxylic acid]	8.28 nM	374 nM	–
C[C@@H](COc1ccnc2c1[C@H](C)CC[C@H]2C)C[C@H]1Cc2ccccc2[C@]12CC[C@@](Nc1cccc(Cl)c1)(C(=O)O)CC2 [Example 660, (1r,2′S,4S)-4-(3-chloroanilino)-2′-[(2R)-3-{[(5R,8R)-5,8-dimethyl-5,6,7,8-tetrahydroquinolin-4-yl]oxy}-2-methylpropyl]-2′,3′-dihydrospiro[cyclohexane-1,1′-indene]-4-carboxylic acid]	1.39 nM	62 nM	–
O=C(O)[C@]1(Nc2cccc(Cl)c2)CC[C@@]2(CC1)c1ccccc1CC2CC(COc1ccnc2ccsc12)Cc1ccccc1 (single isomer, unassigned) [Example 562, (1r,4r)-2′-{2-benzyl-3-[(thieno[3,2-b]pyridin-7-yl)oxy]propyl}-4-(3-chloroanilino)-2′,3′-dihydrospiro[cyclohexane-1,1′-indene]-4-carboxylic acid]	80.9 nM	–	17800 nM
C[C@@H](COc1ncnc2c1CCCC2)CC1=Cc2ccccc2[C@]12CC[C@@](Nc1cccc(Cl)c1)(C(=O)O)CC2 [Example 636, (1r,4R)-4-(3-chloroanilino)-2′-{(2R)-2-methyl-3-[(5,6,7,8-tetrahydroquinazolin-4-yl)oxy]propyl}spiro[cyclohexane-1,1′-indene]-4-carboxylic acid]	16.2 nM	3080 nM	–
C[C@@H](COc1ccnc2c1CCC2)C[C@H]1Cc2ccccc2[C@]12CC[C@@](Nc1cccc(Cl)c1)(C(=O)O)CC2 [Example 599, (1r,2′S,4S)-4-(3-chloroanilino)-2′-{(2R)-3-[(6,7-dihydro-5H-cyclopenta[b]pyridin-4-yl)oxy]-2-methylpropyl}-2′,3′-dihydrospiro[cyclohexane-1,1′-indene]-4-carboxylic acid]	1.05 nM	237 nM	–
C[C@@H]1CCCc2nccc(OCC(CC3Cc4ccccc4[C@]34CC[C@@](Nc3cccc(Cl)c3)(C(=O)O)CC4)C(F)F)c21 (single isomer, unassigned) [Example 518]	1260 nM	–	12000 nM
C[C@@H](COc1ccnc2c1CCC[C@H]2F)C[C@H]1Cc2ccccc2[C@]12CC[C@@](Nc1cccc(Cl)c1)(C(=O)O)CC2 [Example 681, (1r,2′S,4S)-4-(3-chloroanilino)-2′-[(2R)-3-{[(8R)-8-fluoro-5,6,7,8-tetrahydroquinolin-4-yl]oxy}-2-methylpropyl]-2′,3′-dihydrospiro[cyclohexane-1,1′-indene]-4-carboxylic acid]	3.26 nM	1160 nM	–

More lines, main results first:

Ki [1]	SMILES	IC50 ([2]; Homo sapiens, NCI-H929, 48 h)	IC50 [2]
3.22 nM	Cc1cccc2c1C=C(C[C@@H](C)COc1ccnc3c1[C@H](C)CCC3)[C@]21CC[C@](Nc2cccc(Cl)c2)(C(=O)O)CC1 [Example 753, (1r,4R)-4-(3-chloroanilino)-4′-methyl-2′-[(2R)-2-methyl-3-{[(5R)-5-methyl-5,6,7,8-tetrahydroquinolin-4-yl]oxy}propyl]spiro[cyclohexane-1,1′-indene]-4-carboxylic acid]	111 nM	–
0.864 nM	CC(=O)c1ccc2c(c1)[C@]1(CC[C@@](Nc3cccc(Cl)c3)(C(=O)O)CC1)C(C[C@@H](C)COc1ccnc3c1[C@H](C)CCC3)=C2 [Example 856, (1r,4R)-6′-acetyl-4-(3-chloroanilino)-2′-[(2R)-2-methyl-3-{[(5R)-5-methyl-5,6,7,8-tetrahydroquinolin-4-yl]oxy}propyl]spiro[cyclohexane-1,1′-indene]-4-carboxylic acid]	74.8 nM	–
0.321 nM	C[C@@H](COc1ccnc2c1[C@H](C)CCC2)CC1Cc2c(F)c(Cl)ccc2[C@]12CC[C@@](Nc1cccc(Cl)c1)(C(=O)O)CC2 (single isomer, unassigned) [Example 749]	–	72.4 nM
0.303 nM	Cc1cc(C(C)O)cc2c1C=C(C[C@@H](C)COc1ccnc3c1[C@H](C)CCC3)[C@]21CC[C@](Nc2cccc(Cl)c2)(C(=O)O)CC1 (single isomer, unassigned) [Example 759]	–	185 nM
5.3 nM	C[C@@H]1CCCc2nccc(OCC(F)CC3Cc4ccccc4[C@]34CC[C@@](Nc3cccc(Cl)c3)(C(=O)O)CC4)c21 (single isomer, unassigned) [Example 509]	–	999 nM
0.113 nM	CC(O)c1ccc2c(c1)[C@]1(CC[C@@](Nc3cccc(Cl)c3)(C(=O)O)CC1)[C@@H](C[C@@H](C)COc1ccnc3c1[C@H](C)CC[C@H]3O)C2 (single isomer, unassigned) [Example 862]	–	73.8 nM
8.89 nM	C[C@@H](COc1ccnc2c1[C@@H](C)CCC2)C[C@H]1Cc2ccc(O)cc2[C@]12CC[C@@](Nc1cccc(Cl)c1)(C(=O)O)CC2 [Example 780, (1r,2′S,4S)-4-(3-chloroanilino)-6′-hydroxy-2′-[(2R)-2-methyl-3-{[(5S)-5-methyl-5,6,7,8-tetrahydroquinolin-4-yl]oxy}propyl]-2′,3′-dihydrospiro[cyclohexane-1,1′-indene]-4-carboxylic acid]	641 nM	–
3.42 nM	C[C@@H](COc1ccnc2c1[C@@H](C)CCC2)C[C@H]1Cc2cc(Cl)c(O)cc2[C@]12CC[C@@](Nc1cccc(Cl)c1)(C(=O)O)CC2 [Example 814, (1r,2′S,4S)-5′-chloro-4-(3-chloroanilino)-6′-hydroxy-2′-[(2R)-2-methyl-3-{[(5S)-5-methyl-5,6,7,8-tetrahydroquinolin-4-yl]oxy}propyl]-2′,3′-dihydrospiro[cyclohexane-1,1′-indene]-4-carboxylic acid]	135 nM	–
68.7 nM	Cc1cc(OC[C@H](C)C[C@H]2Cc3ccccc3[C@]23CC[C@@](Nc2cccc(Cl)c2)(C(=O)O)CC3)c2c(n1)CCCC2C (single isomer, unassigned) [Example 662]	–	9060 nM
0.0909 nM	CC(O)c1ccc2c(c1)[C@]1(CC[C@@](Nc3cccc(Cl)c3)(C(=O)O)CC1)[C@@H](C[C@@H](C)COc1ccnc3c1[C@H](C)CC[C@H]3O)C2 (single isomer, unassigned) [Example 861]	56.3 nM	–
